Laboratory results as given in patent publication US20190292167A1, “HETEROAROMATIC COMPOUNDS USEFUL FOR THE TREATMENT OF PROLIFERATIVE DISEASES” (Syros Pharmaceuticals, Inc., priority 2013, published 2019).
Where a name gives a salt, the structure may show the parent alone. Read-outs that look alike come from different tables or passages of the source.

Experiments:
[1] = target: T1, CDK7 (Homo sapiens, UniProt P50613); assay: Adapta kinase assay (Life Technologies) against CDK7, co-factors cyclin H and MNAT1; assay type: biochemical; settings: read-out: CDK7 Inhibition
T1 construct: purchased Life Technologies (Adapta kinase assay service)
T1 sequence (P50613 whole entry): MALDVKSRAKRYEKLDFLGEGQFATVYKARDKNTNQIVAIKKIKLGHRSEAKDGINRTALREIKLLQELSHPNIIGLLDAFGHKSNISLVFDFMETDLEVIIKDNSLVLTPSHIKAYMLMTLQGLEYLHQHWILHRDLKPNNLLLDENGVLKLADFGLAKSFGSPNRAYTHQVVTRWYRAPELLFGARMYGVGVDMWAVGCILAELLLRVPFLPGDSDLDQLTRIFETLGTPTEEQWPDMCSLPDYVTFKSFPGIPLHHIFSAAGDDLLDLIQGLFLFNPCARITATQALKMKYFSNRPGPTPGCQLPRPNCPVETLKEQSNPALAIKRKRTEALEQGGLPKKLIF
T1 sequence (P51946 whole entry partner): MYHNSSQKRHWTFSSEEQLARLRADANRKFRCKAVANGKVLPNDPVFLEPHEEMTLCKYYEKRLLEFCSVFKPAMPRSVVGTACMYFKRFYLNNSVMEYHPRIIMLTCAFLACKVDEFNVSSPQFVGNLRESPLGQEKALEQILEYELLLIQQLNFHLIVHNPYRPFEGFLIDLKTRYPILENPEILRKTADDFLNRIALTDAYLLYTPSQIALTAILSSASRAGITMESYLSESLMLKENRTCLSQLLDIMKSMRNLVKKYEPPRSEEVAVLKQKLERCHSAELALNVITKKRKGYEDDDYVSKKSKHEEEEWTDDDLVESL
T1 sequence (P51948 whole entry partner): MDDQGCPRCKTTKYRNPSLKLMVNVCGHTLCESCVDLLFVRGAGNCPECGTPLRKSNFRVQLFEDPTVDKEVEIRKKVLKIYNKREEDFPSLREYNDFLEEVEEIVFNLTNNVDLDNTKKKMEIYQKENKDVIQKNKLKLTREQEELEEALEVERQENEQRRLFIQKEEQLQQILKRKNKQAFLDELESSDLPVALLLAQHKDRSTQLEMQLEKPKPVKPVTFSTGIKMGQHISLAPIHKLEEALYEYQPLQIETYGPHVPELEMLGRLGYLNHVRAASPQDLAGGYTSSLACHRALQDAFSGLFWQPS
Method: Compounds of the invention were assayed for activity against CDK7 at Life Technologies™ (Grand Island, N.Y.) using their commercially available Adapta® kinase assay services. […] Details of the assay, including the substrate used for CDK7 kinase, are available on the Life Technologies web site (http://www.lifetechnologies.com/us/en/homellife-science/drug-discovery/target-and-lead-identification-and-validation/kinasebiology/kinase-activity-assays.html).
The co-factors used for the assay were cyclin H and MNAT1.

[2] = system: Jurkat; assay: Inhibition of cell proliferation, CellTiter-Glo, 72 hour; assay type: cell-based; settings: Blood cancer cell line, 72 hour, read-out: Inhibition of Proliferation of Jurkat Cells
Method: The following cancer cell lines were tested with the media conditions indicated: […]

Row | SMILES | IC50 [1] [nM] | IC50 [2] [nM] | IC50 ([2]; Homo sapiens, Jurkat, 72 h) [nM]
1 | CN(C)C/C=C/C(=O)Nc1ccc(C(=O)N[C@@H]2CC[C@H](Nc3ncc(Cl)c(-c4cc[nH]n4)n3)C2)cc1.CN(C)C/C=C/C(=O)Nc1ccc(C(=O)N[C@H]2CC[C@@H](Nc3ncc(Cl)c(-c4cc[nH]n4)n3)C2)cc1 (mixture of isomers) [Compound 124, N-((1R,3S)-3-((5-chloro-4-(1H-pyrazol-3-yl)pyrimidin-2-yl)amino)cyclopentyl)-4-((E)-4-(dimethylamino)but-2-enamido)benzamide and N-((1S,3R)-3-((5-chloro-4-(1H-pyrazol-3-yl)pyrimidin-2-yl)amino)cyclopentyl)-4-((E)-4-(dimethylamino)but-2-enamido)benzamide] | > 1000 | > 5000 | 
2 | CN(C/C=C/C(=O)Nc1ccc(CN2CCC(Nc3ncc(Cl)c(-c4c[nH]c5ccccc45)n3)CC2)cc1)CC(O)CO (stereo not drawn) [Compound 143, (E)-N-(4-((4-((5-chloro-4-(1H-indol-3-yl)pyrimidin-2-yl)amino)piperidin-1-yl)methyl)phenyl)-4-((2,3-dihydroxypropyl)(methyl)amino)but-2-enamide] | < 100 |  | < 500
3 | Nc1ccc(CN2CCC(Nc3ncc(Cl)c(-c4c[nH]c5ccccc45)n3)CC2)cc1 [Compound 48, N-(1-(4-aminobenzyl)piperidin-4-yl)-5-chloro-4-(1H-indol-3-yl)pyrimidin-2-amine.HCl] | 100 to 1000 |  | 500 to 5000
4 | Nc1ccc(C(=O)N2CCC(Nc3ncc(Cl)c(-c4c[nH]c5ccccc45)n3)CC2)c(F)c1 [Compound 67, (4-amino-2-fluorophenyl)(4-(5-chloro-4-(1H-indol-3-yl)pyrimidin-2-ylamino)piperidin-1-yl)methanone] | 100 to 1000 |  | 500 to 5000
5 | Cc1[nH]c2ccccc2c1-c1nc(N[C@@H]2CC[C@H](NC(=O)c3ccc(NC(=O)/C=C/CN(C)C)cc3)C2)ncc1Cl (racemic) [Compound 126, N-((1R,3S)-3-((5-chloro-4-(2-methyl-1H-indol-3-yl)pyrimidin-2-yl)amino)cyclopentyl)-4-((E)-4-(dimethylamino)but-2-enamido)benzamide and N-((1S,3R)-3-((5-chloro-4-(2-methyl-1H-indol-3-yl)pyrimidin-2-yl)amino)cyclopentyl)-4-((E)-4-(dimethylamino)but-2-enamido)benzamide] | < 100 |  | < 500
6 | CN(C/C=C/C(=O)Nc1ccc(CN2CCC(Nc3ncc(Cl)c(-c4c[nH]c5ccccc45)n3)CC2)cc1)CC(N)=O [Compound 146, (E)-4-((2-amino-2-oxoethyl)(methyl)amino)-N-(4-((4-((5-chloro-4-(1H-indol-3-yl)pyrimidin-2-yl)amino)piperidin-1-yl)methyl)phenyl)but-2-enamide] | < 100 |  | > 5000
7 | C=CC(=O)Nc1ccc(CNC(=O)[C@H]2CNCC(Nc3ncc(Cl)c(-c4c[nH]c5ccccc45)n3)C2)cc1 (mixture of isomers) [Compound 151, (+/−trans)-N-(4-acrylamidobenzyl)-5-((5-chloro-4-(1H-indol-3-yl)pyrimidin-2-yl)amino)piperidine-3-carboxamide] | < 100 |  | < 500
8 | N#Cc1cnc(N[C@@H]2CCN(C(=O)c3ccc(N)cc3)C2)nc1-c1c[nH]c2ccccc12 [Compound 37, 2-((R)-1-(4-aminobenzoyl)pyrrolidin-3-ylamino)-4-(1H-indol-3-yl)pyrimidine-5-carbonitrile] | < 100 |  | 500 to 5000
9 | CC(=O)Nc1ccc(CN2CCC(Nc3ncc(Cl)c(-c4c[nH]c5ccccc45)n3)CC2)cc1 [Compound 47, N-(4-((4-(5-chloro-4-(1H-indol-3-yl)pyrimidin-2-ylamino)piperidin-1-yl)methyl)phenyl)acetamide] | 100 to 1000 |  | 500 to 5000
10 | CN(C/C=C/C(=O)Nc1ccc(CN2CCC(Nc3ncc(Cl)c(-c4c[nH]c5ccccc45)n3)CC2)cc1)CC(=O)O [Compound 148, 2-[[(E)-4-[4-[[4-[[5-chloro-4-(1H-indol-3-yl)pyrimidin-2-yl]amino]-1-piperidyl]methyl]anilino]-4-oxo-but-2-enyl]-methyl-amino]acetic acid] | < 100 |  | 500 to 5000
11 | CN1CCN(C/C=C/C(=O)Nc2ccc(C(=O)N3CC[C@@H](Nc4ncc(C#N)c(-c5c[nH]c6ccccc56)n4)C3)cc2)CC1 [Compound 110, (E)-N-(4-((R)-3-(5-cyano-4-(1H-indol-3-yl)pyrimidin-2-ylamino)pyrrolidine-1-carbonyl)phenyl)-4-(4-methylpiperazin-1-yl)but-2-enamide] | < 100 |  | < 500
12 | NCC(=O)Nc1cccc(Nc2ncc(Cl)c(-c3c[nH]c4ccccc34)n2)c1 [Compound 307, 2-amino-N-(3-(5-chloro-4-(1H-indol-3-yl)pyrimidin-2-ylamino)phenyl)acetamide.TFA] | < 100 |  | 500 to 5000
13 | CN(C)C/C=C/C(=O)Nc1ccc(C(=O)N2CCC(Nc3ncc(Cl)c(-c4cccnc4)n3)CC2)cc1 [Compound 118, (E)-N-(4-(4-((5-chloro-4-(pyridin-3-yl)pyrimidin-2-yl)amino)piperidine-1-carbonyl)phenyl)-4-(dimethylamino)but-2-enamide] | 100 to 1000 |  | 500 to 5000
14 | CN(C)C/C=C/C(=O)NCC(=O)Nc1cccc(Nc2ncc(Cl)c(-c3c[nH]c4ccccc34)n2)c1 [Compound 137, (E)-N-(2-(3-(5-chloro-4-(1H-indol-3-yl)pyrimidin-2-ylamino)phenylamino)-2-oxoethyl)-4-(dimethylamino)but-2-enamide] | < 100 |  | 500 to 5000
15 | O=C(/C=C/CNC(=O)C(F)(F)F)Nc1ccc(CN2CCC(Nc3ncc(Cl)c(-c4c[nH]c5ccccc45)n3)CC2)cc1 [Compound 156, (E)-N-(4-((4-((5-chloro-4-(1H-indol-3-yl)pyrimidin-2-yl)amino)piperidin-1-yl)methyl)phenyl)-4-(2,2,2-trifluoroacetamido)but-2-enamide] | 100 to 1000 |  | 500 to 5000
16 | C=CC(=O)Nc1ccc(CNC(=O)C2CC(Nc3ncc(Cl)c(-c4c[nH]c5ccccc45)n3)CN(C)C2)cc1 (racemic) [Compound 157, (+/−cis)-N-(4-acrylamidobenzyl)-5-((5-chloro-4-(1H-indol-3-yl)pyrimidin-2-yl)amino)-1-methylpiperidine-3-carboxamide] | < 100 |  | < 500
17 | CN(C)C/C=C/C(=O)N(C)c1cccc(CN2CCC(Nc3ncc(Cl)c(-c4c[nH]c5ccccc45)n3)CC2)c1 [Compound 145, (E)-N-[3-[[4-[[5-chloro-4-(1H-indol-3-yl)pyrimidin-2-yl]amino]-1-piperidyl]methyl]phenyl]-4-(dimethylamino)-N-methyl-but-2-enamide] | < 100 |  | < 500
18 | CN(C)C/C=C/C(=O)Nc1ccc(C(=O)N[C@@H]2CC[C@H](Nc3ncc(Cl)c(-c4c[nH]c5ccccc45)n3)C2)cc1 (racemic) [Compound 120, N-((1R,3S)-3-((5-chloro-4-(1H-indol-3-yl)pyrimidin-2-yl)amino)cyclopentyl)-4-((E)-4-(dimethylamino)but-2-enamido)benzamide and N-((1S,3R)-3-((5-chloro-4-(1H-indol-3-yl)pyrimidin-2-yl)amino)cyclopentyl)-4-((E)-4-(dimethylamino)but-2-enamido)benzamide] | 100 to 1000 |  | < 500
19 | Cc1cc(C(=O)N2CCC(Nc3ncc(Cl)c(-c4c[nH]c5ccccc45)n3)CC2)ccc1NC(=O)/C=C/CN(C)C [Compound 113, (E)-N-(4-(4-(5-chloro-4-(1H-indol-3-yl)pyrimidin-2-ylamino)piperidine-1-carbonyl)-2-methylphenyl)-4-(dimethylamino)but-2-enamide] | < 100 |  | < 500
20 | CN(C/C=C/C(=O)Nc1ccc(C(=O)N2CC[C@@H](Nc3ncc(C#N)c(-c4c[nH]c5ccccc45)n3)C2)cc1)CCO [Compound 111, (E)-N-(4-((R)-3-(5-cyano-4-(1H-indol-3-yl)pyrimidin-2-ylamino)pyrrolidine-1-carbonyl)phenyl)-4-((2-hydroxyethyl)(methyl)amino)but-2-enamide] | < 100 |  | < 500
21 | CN(C)C/C=C/C(=O)Nc1ccc(C(=O)N2CCC(Nc3ncc(Cl)c(-c4cc[nH]n4)n3)CC2)cc1 [Compound 117, (E)-N-(4-(4-((5-chloro-4-(1H-pyrazol-3-yl)pyrimidin-2-yl)amino)piperidine-1-carbonyl)phenyl)-4-(dimethylamino)but-2-enamide] | > 1000 |  | > 5000
22 | CN(C)C/C=C/C(=O)Nc1cccc(CN2CCC(Nc3ncc(Cl)c(-c4c[nH]c5ccccc45)n3)CC2)c1 [Compound 141, (E)-N-[3-[[4-[[5-chloro-4-(1H-indol-3-yl)pyrimidin-2-yl]amino]-1-piperidyl]methyl]phenyl]-4-(dimethylamino)but-2-enamide] | < 100 |  | < 500
23 | CN(C)C/C=C/C(=O)Nc1ccc(CN2CC[C@@H](Nc3ncc(Cl)c(-c4c[nH]c5ccccc45)n3)C2)cc1 [Compound 144, (R,E)-N-(4-((3-((5-chloro-4-(1H-indol-3-yl)pyrimidin-2-yl)amino)pyrrolidin-1-yl)methyl)phenyl)-4-(dimethylamino)but-2-enamide (E)-4-(dimethylamino)but-2-enoate] | < 100 |  | < 500
24 | CN(C)C/C=C/C(=O)Nc1ccc(C(=O)N2CCC(Nc3ncc(Cl)c(-c4c[nH]c5ccccc45)n3)CC2)c(F)c1 [Compound 115, (E)-N-(4-(4-(5-chloro-4-(1H-indol-3-yl)pyrimidin-2-ylamino)piperidine-1-carbonyl)-3-fluorophenyl)-4-(dimethylamino)but-2-enamide] | < 100 |  | < 500
